Test system: Unknown protein yeast genes
Assay: DNA chip mRNA expression in yeast, unknown protein yeast genes (Table 1)
Assay type: cell-based, Saccharomyces cerevisiae S288C
How it was run: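 Untreated cultures served as reference for log-phase S288C yeast given a growth-inhibiting, non-lethal toxicant dose for 2 h at 25° C. in YPD. Gene expression was measured on a whole-genome DNA chip from Cy3/Cy5-labeled cDNA.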

COc1cc(CNC(=O)CCCCC=CC(C)C)ccc1O [(12), 8-methyl-N-vanillyl-6-nonenamide]
The level of expressed mRNA in the presence of chemical substance/The level of expressed mRNA in the absence of chemical substance (yeast gene YKL086W, incubated two hours with chemical substance): 0.6 | The level of expressed mRNA in the presence of chemical substance/The level of expressed mRNA in the absence of chemical substance (yeast gene YKL151C, incubated two hours with chemical substance): 1.0 | The level of expressed mRNA in the presence of chemical substance/The level of expressed mRNA in the absence of chemical substance (yeast gene YKL153W, incubated two hours with chemical substance): 1.1 | The level of expressed mRNA in the presence of chemical substance/The level of expressed mRNA in the absence of chemical substance (yeast gene YKL195W, incubated two hours with chemical substance): 1.1 | The level of expressed mRNA in the presence of chemical substance/The level of expressed mRNA in the absence of chemical substance (yeast gene YKR091W, incubated two hours with chemical substance): 0.9 | The level of expressed mRNA in the presence of chemical substance/The level of expressed mRNA in the absence of chemical substance (yeast gene YLR054C, incubated two hours with chemical substance): 1.1 | The level of expressed mRNA in the presence of chemical substance/The level of expressed mRNA in the absence of chemical substance (yeast gene YLR149C, incubated two hours with chemical substance): 2.0 | The level of expressed mRNA in the presence of chemical substance/The level of expressed mRNA in the absence of chemical substance (yeast gene YLR152C, incubated two hours with chemical substance): 1.0 | The level of expressed mRNA in the presence of chemical substance/The level of expressed mRNA in the absence of chemical substance (yeast gene YLR194C, incubated two hours with chemical substance): 1.6 | The level of expressed mRNA in the presence of chemical substance/The level of expressed mRNA in the absence of chemical substance (yeast gene YLR324W, incubated two hours with chemical substance): 0.8 | The level of expressed mRNA in the presence of chemical substance/The level of expressed mRNA in the absence of chemical substance (yeast gene YLR350W, incubated two hours with chemical substance): 1.8 | The level of expressed mRNA in the presence of chemical substance/The level of expressed mRNA in the absence of chemical substance (yeast gene YLR387C, incubated two hours with chemical substance): 1.1 | The level of expressed mRNA in the presence of chemical substance/The level of expressed mRNA in the absence of chemical substance (yeast gene YLR460C): 0.4 | The level of expressed mRNA in the presence of chemical substance/The level of expressed mRNA in the absence of chemical substance (yeast gene YML117W, incubated two hours with chemical substance): 0.8 | The level of expressed mRNA in the presence of chemical substance/The level of expressed mRNA in the absence of chemical substance (yeast gene YMR009W, incubated two hours with chemical substance): 0.6 | The level of expressed mRNA in the presence of chemical substance/The level of expressed mRNA in the absence of chemical substance (yeast gene YMR067C, incubated two hours with chemical substance): 1.1 | The level of expressed mRNA in the presence of chemical substance/The level of expressed mRNA in the absence of chemical substance (yeast gene YMR090W): 2.2 | The level of expressed mRNA in the presence of chemical substance/The level of expressed mRNA in the absence of chemical substance (yeast gene YMR095C, incubated two hours with chemical substance): 0.8 | The level of expressed mRNA in the presence of chemical substance/The level of expressed mRNA in the absence of chemical substance (yeast gene YMR097C, incubated two hours with chemical substance): 1.2 | The level of expressed mRNA in the presence of chemical substance/The level of expressed mRNA in the absence of chemical substance (yeast gene YMR102C, incubated two hours with chemical substance): 2.4 | The level of expressed mRNA in the presence of chemical substance/The level of expressed mRNA in the absence of chemical substance (yeast gene YMR107W, incubated two hours with chemical substance): 0.8 | The level of expressed mRNA in the presence of chemical substance/The level of expressed mRNA in the absence of chemical substance (yeast gene YMR180C, incubated two hours with chemical substance): 1.2 | The level of expressed mRNA in the presence of chemical substance/The level of expressed mRNA in the absence of chemical substance (yeast gene YMR184W, incubated two hours with chemical substance): 1.7 | The level of expressed mRNA in the presence of chemical substance/The level of expressed mRNA in the absence of chemical substance (yeast gene YMR191W, incubated two hours with chemical substance): 1.8 | The level of expressed mRNA in the presence of chemical substance/The level of expressed mRNA in the absence of chemical substance (yeast gene YMR295C, incubated two hours with chemical substance): 1.1 | The level of expressed mRNA in the presence of chemical substance/The level of expressed mRNA in the absence of chemical substance (yeast gene YMR316W, incubated two hours with chemical substance): 1.9 | The level of expressed mRNA in the presence of chemical substance/The level of expressed mRNA in the absence of chemical substance (yeast gene YNL044W, incubated two hours with chemical substance): 1.0 | The level of expressed mRNA in the presence of chemical substance/The level of expressed mRNA in the absence of chemical substance (yeast gene YNL074C, incubated two hours with chemical substance): 0.9 | The level of expressed mRNA in the presence of chemical substance/The level of expressed mRNA in the absence of chemical substance (yeast gene YNL092W, incubated two hours with chemical substance): 1.1 | The level of expressed mRNA in the presence of chemical substance/The level of expressed mRNA in the absence of chemical substance (yeast gene YNL115C, incubated two hours with chemical substance): 0.8 | The level of expressed mRNA in the presence of chemical substance/The level of expressed mRNA in the absence of chemical substance (yeast gene YNL156C, incubated two hours with chemical substance): 0.9 | The level of expressed mRNA in the presence of chemical substance/The level of expressed mRNA in the absence of chemical substance (yeast gene YNL234W, incubated two hours with chemical substance): 1.1 | The level of expressed mRNA in the presence of chemical substance/The level of expressed mRNA in the absence of chemical substance (yeast gene YNL281W, incubated two hours with chemical substance): 0.7 | The level of expressed mRNA in the presence of chemical substance/The level of expressed mRNA in the absence of chemical substance (yeast gene YNL305C, incubated two hours with chemical substance): 1.1 | The level of expressed mRNA in the presence of chemical substance/The level of expressed mRNA in the absence of chemical substance (yeast gene YNR068C, incubated two hours with chemical substance): 1.3 | The level of expressed mRNA in the presence of chemical substance/The level of expressed mRNA in the absence of chemical substance (yeast gene YOL032W, incubated two hours with chemical substance): 1.0 | The level of expressed mRNA in the presence of chemical substance/The level of expressed mRNA in the absence of chemical substance (yeast gene YOL036W, incubated two hours with chemical substance): 1.0 | The level of expressed mRNA in the presence of chemical substance/The level of expressed mRNA in the absence of chemical substance (yeast gene YOL047C, incubated two hours with chemical substance): 0.8 | The level of expressed mRNA in the presence of chemical substance/The level of expressed mRNA in the absence of chemical substance (yeast gene YOL071W, incubated two hours with chemical substance): 1.0 | The level of expressed mRNA in the presence of chemical substance/The level of expressed mRNA in the absence of chemical substance (yeast gene YOL082W, incubated two hours with chemical substance): 1.0 | The level of expressed mRNA in the presence of chemical substance/The level of expressed mRNA in the absence of chemical substance (yeast gene YOL083W, incubated two hours with chemical substance): 1.2 | The level of expressed mRNA in the presence of chemical substance/The level of expressed mRNA in the absence of chemical substance (yeast gene YOL117W, incubated two hours with chemical substance): 0.9 | The level of expressed mRNA in the presence of chemical substance/The level of expressed mRNA in the absence of chemical substance (yeast gene YOL131W, incubated two hours with chemical substance): 0.9 | The level of expressed mRNA in the presence of chemical substance/The level of expressed mRNA in the absence of chemical substance (yeast gene YOL150C): 2.9 | The level of expressed mRNA in the presence of chemical substance/The level of expressed mRNA in the absence of chemical substance (yeast gene YOL162W, incubated two hours with chemical substance): 1.4 | The level of expressed mRNA in the presence of chemical substance/The level of expressed mRNA in the absence of chemical substance (yeast gene YOR019W, incubated two hours with chemical substance): 1.0 | The level of expressed mRNA in the presence of chemical substance/The level of expressed mRNA in the absence of chemical substance (yeast gene YOR129C): 0.6 | The level of expressed mRNA in the presence of chemical substance/The level of expressed mRNA in the absence of chemical substance (yeast gene YOR197W, incubated two hours with chemical substance): 1.0 | The level of expressed mRNA in the presence of chemical substance/The level of expressed mRNA in the absence of chemical substance (yeast gene YPL087W, incubated two hours with chemical substance): 1.8 | The level of expressed mRNA in the presence of chemical substance/The level of expressed mRNA in the absence of chemical substance (yeast gene YPL196W, incubated two hours with chemical substance): 0.9 | The level of expressed mRNA in the presence of chemical substance/The level of expressed mRNA in the absence of chemical substance (yeast gene YPL206C, incubated two hours with chemical substance): 0.8 | The level of expressed mRNA in the presence of chemical substance/The level of expressed mRNA in the absence of chemical substance (yeast gene YPL222W, incubated two hours with chemical substance): 1.3 | The level of expressed mRNA in the presence of chemical substance/The level of expressed mRNA in the absence of chemical substance (yeast gene YPR023C, incubated two hours with chemical substance): 0.9 | The level of expressed mRNA in the presence of chemical substance/The level of expressed mRNA in the absence of chemical substance (yeast gene YPR151C, incubated two hours with chemical substance): 0.9
